Patent publication US10426751B2, “Allosteric activators for treatment of phenylketonuria” (MCMASTER UNIVERSITY, priority 2015, dated 2019)
Numbering of substitutions follows the chain as printed. Entries after “also recorded” stand apart in the source; their conditions may differ.

Key:
[1] = molecular target: T1, WT-PAH (Homo sapiens, UniProt P00439); experiment: Primary screen (READ): ligand-induced stabilization of PAH activity in 8 M urea, Tyr formation by CE-UV; type: biochemical; conditions: ligand 20 μM; for stabilization / enhancement effect on PAH activity (in words): denaturing conditions
T1 construct: made in house; the paragraph itself says 'eukaryotic cell cultures' (pMAL vector, Martinez laboratory, University of Bergen)
T1 sequence (P00439 1-452): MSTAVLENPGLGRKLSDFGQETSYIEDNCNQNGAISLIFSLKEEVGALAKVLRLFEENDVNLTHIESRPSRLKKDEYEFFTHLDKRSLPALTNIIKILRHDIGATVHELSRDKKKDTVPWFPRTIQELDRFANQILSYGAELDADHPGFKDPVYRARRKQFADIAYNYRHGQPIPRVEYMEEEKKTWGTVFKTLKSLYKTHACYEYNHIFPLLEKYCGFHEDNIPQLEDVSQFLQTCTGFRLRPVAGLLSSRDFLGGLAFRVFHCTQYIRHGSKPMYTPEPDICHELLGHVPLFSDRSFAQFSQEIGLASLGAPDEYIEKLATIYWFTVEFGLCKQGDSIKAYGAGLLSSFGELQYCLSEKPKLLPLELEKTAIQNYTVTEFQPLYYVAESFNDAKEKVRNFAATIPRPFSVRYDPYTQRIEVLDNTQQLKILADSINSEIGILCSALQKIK
Procedure: (§1) Tetrameric human phenylalanine hydroxylase (PAH) enzyme kinetic assays were performed off-line under standardized conditions prior to quantification of Tyr formation by CE with UV detection. Enzyme assays were performed by first mixing together Phe (1 mM), catalase (100 nM) and PAH (0.25 μM/subunit) in a reaction buffer (20 mM HEPES and 200 mM NaCl, pH 7.0) that were equilibrated at 25° C. for 4 min. Then, ferrous (Fe^2+) ammonium sulfate (100 μM) was added to the solution for 1 min and the reaction was subsequently initiated by addition of BH4 ([…]) with DTT (5 mM) using a total volume of 100 μL. The reaction mixture was then vortexed for 60 s followed by sonication for 2 min prior to centrifugation for 10 s at 4 g and storage in a refrigerator (+4° C.). An aliquot (20 μL) was withdrawn from the quenched enzyme reaction and placed in a micro vial containing Me-Tyr as IS (100 μM) prior to CE analysis. The stability of the quenched enzyme reaction was confirmed by intermittent analysis of PAH activity over 6 h at room temperature, and no significant changes in the Tyr/IS or Phe/Tyr response ratio were measured. Enzymatic reactions were performed for both WT-PAH and two PAH mutants by pre-equilibrating each ligand for 10 min prior to addition of ferrous ion and BH4/DDT as described in enzyme reaction protocol in order to assess for ligand-induced PAH inhibition or activation.
Unlike thermal stability assays that can induce protein aggregation, chemical denaturants are more suitable as perturbants to promote unfolding and enzyme inactivation while solubilizing multimeric proteins. In this context, restoration of enzyme activity upon denaturation (READ) was first introduced to characterize PCs that stabilize yet enhance the activity of a lysosomal enzyme, β-glucocerebrosidase (GCase). Herein, READ was modified, further optimized and validated for primary screening of PCs for the cytosolic enzyme (PAH) using a chemical library containing structurally unique compounds with drug-like activity. For instance, the primary screen was used to measure ligand-induced stabilization of PAH by extrinsic small molecules that impart greater resistance to urea unfolding as compared to ligand-free apo-enzyme conditions. PAH activity was first examined as a function of urea concentration (0 to 8 M) and pre-equilibration time (10 min to 2 hr) in order to determine optimum conditions where residual enzyme activity was largely attenuated below 10% due to protein unfolding. Protein unfolding was performed in triplicate offline with the enzyme reaction buffer (20 mM HEPES and 200 mM NaCl, pH 7.0) using tetrameric human PAH (1 μM and/or 0.1 μM) or mutant PAH (1 μM and/or 0.1 μM) incubated 10 min in 0 M or 8 M urea in the presence or absence of ligand (20 μM). Dose-response studies (0, 2.0 and 20 μM) were subsequently performed in triplicate on screen-positive compounds using re-synthesized ligands in order to further validate initial screen results. In all cases, quenched enzyme reactions were processed as described previously prior to CE analysis. PAH activity measurements based on Tyr formation at 8M urea with the presence or absence of PC were normalized to 0 M urea for each aliquot enzyme reaction to minimize long-term variation, which also enables direct comparison of the ligand-induced stabilization activity under denaturing conditions (8M urea) while confirming inhibition and activation effects for ligands under native conditions (0 M urea).

[2] = molecular target: T1, WT-PAH; experiment: PAH enzyme activity under native conditions (0 M urea), ligand-induced inhibition or activation; type: biochemical; conditions: ligand 20 μM
Procedure: as §1, with “An aliquot (20 μL) was withdrawn from the quenched enzyme reaction and placed in a micro vial containing Me-Tyr as IS (100 μM) prior to CE analysis.” left out, “Enzymatic reactions were performed for both WT-PAH and two PAH mutants by pre-equilibrating each ligand for 10 min prior to addition of ferrous ion and BH4/DDT as described in enzyme reaction protocol in order to assess for ligand-induced PAH inhibition or activation.” left out
Unlike thermal stability assays that can induce protein aggregation, chemical denaturants are more suitable as perturbants to promote unfolding and enzyme inactivation while solubilizing multimeric proteins. In this context, restoration of enzyme activity upon denaturation (READ) was first introduced to characterize PCs that stabilize yet enhance the activity of a lysosomal enzyme, β-glucocerebrosidase (GCase). […]

[3] = molecular target: T1, WT-PAH; experiment: Chaperone (refolding) assay: PAH activity after dilution from 6.0 M to 0.5 M GndCl; type: biochemical; conditions: for chaperone activity upon refolding (in words): ligand 20 μM
Procedure: (§2) For instance, a recovery of 50% of residual enzyme activity was achieved without ligand when PAH was incubated in 8.0 M urea after its dilution to 0.5 M urea to trigger protein refolding. In order to further reduce enzyme reversibility, the recovery of PAH activity was subsequently assessed when it was incubated using 6.0 M GndCl for 10 min and subsequently diluted to 0.5 M GndCl in the presence or absence of screen-positive ligands (20 μM) in enzyme reaction buffer with PAH activity measurements performed by CE as described previously. […] Two lead compounds and several analogs of SA were subsequently tested using two different mutants of PAH (I65T and R261Q) without chemical denaturants after the two-tiered screening.

[4] = molecular target: T2, R261Q PAH mutant (Homo sapiens, UniProt P00439, R261Q); experiment: PKU-mutant activity enhancement without chemical denaturants, CE-UV; type: biochemical; conditions: ligand 20 μM, no denaturant
T2 construct: made in house; the paragraph itself says 'eukaryotic cell cultures' (pMAL vector)
T2 sequence (P00439 1-452 R261Q): T1 sequence (P00439 1-452) with R261Q
Procedure: Expression of recombinant human WT-PAH and two PAH mutants ([…]) as fusion protein with maltose-binding protein in […] using pMAL expression vector was performed by the Martinez laboratory at the University of Bergen as described in Svebak et al., Biochem. J., 1995, 306, 589-597. Briefly, purification of the fusion proteins expressed in the pMAL vector system was performed using affinity chromatography followed by size-exclusion chromatography to remove low molecular weight components. Subsequently, the fusion proteins were cleaved by the restriction protease factor Xa and then phosphorylated by cyclic adenosine monophosphate (cAMP)-dependent protein kinase. The two clinically relevant PAH mutants, I65T and R261Q comprise single-point mutations in the regulatory and catalytic domain, respectively which are associated with highly variable phenotypes ranging from mild to classical PKU. For instance, patients with R261Q genotypes are reported to have inconsistent responses to BH4 therapy. In this work, I65T and R261Q PAH mutants were measured to have residual catalytic activities of (35±1)% and (5±0.5)% relative to WT PAH under standardized conditions (i.e., enzyme concentrations, assay buffer etc.), respectively. Stock solutions of WT-PAH and PAH mutants were prepared in enzyme reaction buffer (20 mM HEPES pH 7.0, 200 mM NaCl), and divided into separate 10 μL aliquots in 0.5 mL sterilized centrifuge tubes prior to storage at −80° C. Note that all enzyme assays were performed on aliquots of frozen enzymes thawed slowly in the fridge prior to daily use.
as §1, §2

[5] = system: beta-amyloid peptide; conditions: cited from earlier work
[6] = system: Plasmodium falciparum; conditions: read-out: IC50 (competitive inhibitor); cited from earlier work

For `O=C(O)C1=C[C@@H](O)[C@@H](O)[C@H](O)C1` [SA, (3R,4S,5R)-3,4,5-trihydroxycyclohex-1-ene-1-carboxylic acid], the “PAH residual activity (% of WT-PAH)” value ([1]; 8 M urea, ligand-free enzyme (7±0.5) %) was 16%, the “inhibition or activation of WT-PAH under native conditions (in words)” value [2] was “weak activation effects; also recorded: lack of SA inhibitory effects” and the “chaperone activity upon refolding (in words)” value [3] was “significantly restored”. For the same compound, the “residual activity of WT-PAH after refolding” value ([3]; without ligand (7±0.5) %) was roughly 38±2%, the “activity enhancement of R261Q PAH mutant” value [4] was 3-5 fold and the “activity enhancement of R261Q PAH mutant” value ([4]; listed as HCH) was 5 fold.
In the case of `O=C(O)C1(O)C[C@@H](O)C(O)[C@H](O)C1` (stereo partly drawn) [QA, D-quinic acid], the “stabilization / enhancement effect on PAH activity (in words)” value (“stabilization / enhancement effect” below) [1] is reported as “exhibits PAH stabilization” and the “chaperone activity upon refolding (in words)” value [3] is reported as “significantly restored; also recorded: chaperone activity”.
With `Nc1c(Br)cc(Br)cc1CN[C@H]1CC[C@H](O)CC1` [ambroxol] the “stabilization / enhancement effect” value [1] was “no enhancement effect”.
In the case of `O=C(O)C1=CC(=O)[C@@H](O)[C@H](O)C1` [DSA, 3-dehydroshikimic acid], the “chaperone activity upon refolding (in words)” value [3] is reported as “abolishes the chaperone activity”.
In the case of `OCCN1CCN(CCCN2c3ccccc3Sc3ccc(C(F)(F)F)cc32)CC1` [fluphenazine], the “stabilization / enhancement effect” value [1] is reported as “no enhancement effect”.
For `CCOC(=O)C1=C[C@@H](O)[C@@H](O)[C@H](O)C1` [ESA, ethoxyshikimate], the “chaperone activity upon refolding (in words)” value [3] was “abolishes the chaperone activity”.
For `O=C(O)c1cc(O)c(O)c(O)c1` [GA, gallic acid], the “chaperone activity upon refolding (in words)” value [3] is listed as “destabilizes and reduces the activity of WT-PAH upon refolding” and the “oligomerization of beta-amyloid peptide (in words)” value [5] is listed as “inhibits oligomerization of beta-amyloid peptide”.
For `O=C(O)C1=CC(O)C(O)C(O)C1F` (stereo not drawn) [6-fluoro-shikimate], the IC50 [6] is listed as 15 µM.
With `O[C@H]1[C@H](O)[C@@H](O)[C@H](O)[C@@H](O)[C@H]1O` [myo-inositol] the “stabilization / enhancement effect” value [1] was “no significant activity”.
With `OC[C@H]1CNC[C@@H](O)[C@@H]1O` [isofagomine] the “stabilization / enhancement effect” value [1] was “no enhancement effect”.
For `COc1ccc([C@@H]2Sc3ccccc3N(CCN(C)C)C(=O)[C@@H]2OC(C)=O)cc1` [diltiazem], the “stabilization / enhancement effect” value [1] was “no enhancement effect”.
